Measurements published in ChEMBL document CHEMBL6109108, “A comprehensive review of fused imidazonaphthyridine derivatives: Synthetic approaches and biological applications” (Bioorg Med Chem, 2025).
Values belong to the molecule of their own block, whether it stands above or below them.

What was measured:
Aspergillus niger [1] = assay: Antifungal activity against Aspergillus niger assessed as zone of inhibition at 10 ug/ml by disc diffusion method; format: functional; settings: read-out: IZ
Staphylococcus aureus [2] = assay: Antibacterial activity against Staphylococcus aureus assessed as zone of inhibition at 25 ug/ml by agar disc diffusion method; format: functional; settings: read-out: IZ
Aspergillus niger [3] = assay: Antifungal activity against Aspergillus niger assessed as zone of inhibition at 25 ug/ml by disc diffusion method; format: functional; settings: read-out: IZ
Escherichia coli [4] = assay: Antibacterial activity against Escherichia coli assessed as zone of inhibition at 25 ug/ml by agar disc diffusion method; format: functional; settings: read-out: IZ
Aspergillus niger [5] = assay: Antifungal activity against Aspergillus niger assessed as zone of inhibition at 35 ug/ml by disc diffusion method; format: functional; settings: read-out: IZ
Staphylococcus aureus [6] = assay: Antibacterial activity against Staphylococcus aureus assessed as zone of inhibition at 35 ug/ml by agar disc diffusion method; format: functional; settings: read-out: IZ
Candida metapsilosis [7] = assay: Antifungal activity against Candida metapsilosis assessed as zone of inhibition at 25 ug/ml by disc diffusion method; format: functional; settings: Lodderomyces metapsilosis, read-out: IZ
Candida metapsilosis [8] = assay: Antifungal activity against Candida metapsilosis assessed as zone of inhibition at 10 ug/ml by disc diffusion method; format: functional; settings: Lodderomyces metapsilosis, read-out: IZ
Escherichia coli [9] = assay: Antibacterial activity against Escherichia coli assessed as zone of inhibition at 10 ug/ml by agar disc diffusion method; format: functional; settings: read-out: IZ
Staphylococcus aureus [10] = assay: Antibacterial activity against Staphylococcus aureus assessed as zone of inhibition at 10 ug/ml by agar disc diffusion method; format: functional; settings: read-out: IZ
Candida metapsilosis [11] = assay: Antifungal activity against Candida metapsilosis assessed as zone of inhibition at 35 ug/ml by disc diffusion method; format: functional; settings: Lodderomyces metapsilosis, read-out: IZ
Escherichia coli [12] = assay: Antibacterial activity against Escherichia coli assessed as zone of inhibition at 35 ug/ml by agar disc diffusion method; format: functional; settings: read-out: IZ
Aphis craccivora = assay: Anti-insecticidal activity against Aphis craccivora; format: functional
[13] = molecular target: Voltage-gated inwardly rectifying potassium channel KCNH2 (Homo sapiens, UniProt Q12809); assay: Inhibition of hERG; format: toxicity
Hepatitis C virus = assay: Antiviral activity against Hepatitis C virus genotype 2a infected in human Huh-7 cells assessed as reduction in viral infection; format: functional, organism-based, Hepacivirus hominis
Bacillus subtilis [14] = assay: Antibacterial activity against Bacillus subtilis assessed as zone of inhibition at 150 ug/ml by agar disc diffusion method; format: functional; settings: read-out: IZ
Staphylococcus aureus [15] = assay: Antibacterial activity against Staphylococcus aureus assessed as zone of inhibition at 200 ug/ml by agar disc diffusion method; format: functional; settings: read-out: IZ
Escherichia coli [16] = assay: Antibacterial activity against Escherichia coli assessed as zone of inhibition at 150 ug/ml by agar disc diffusion method; format: functional; settings: read-out: IZ
Pseudomonas aeruginosa [17] = assay: Antibacterial activity against Pseudomonas aeruginosa assessed as zone of inhibition at 150 ug/ml by agar disc diffusion method; format: functional; settings: read-out: IZ
Bacillus subtilis [18] = assay: Antibacterial activity against Bacillus subtilis assessed as zone of inhibition at 250 ug/ml by agar disc diffusion method; format: functional; settings: read-out: IZ
Bacillus subtilis [19] = assay: Antibacterial activity against Bacillus subtilis assessed as zone of inhibition at 200 ug/ml by agar disc diffusion method; format: functional; settings: read-out: IZ
Pseudomonas aeruginosa [20] = assay: Antibacterial activity against Pseudomonas aeruginosa assessed as zone of inhibition at 250 ug/ml by agar disc diffusion method; format: functional; settings: read-out: IZ
Staphylococcus aureus [21] = assay: Antibacterial activity against Staphylococcus aureus assessed as zone of inhibition at 250 ug/ml by agar disc diffusion method; format: functional; settings: read-out: IZ
Staphylococcus aureus [22] = assay: Antibacterial activity against Staphylococcus aureus assessed as zone of inhibition at 150 ug/ml by agar disc diffusion method; format: functional; settings: read-out: IZ
Escherichia coli [23] = assay: Antibacterial activity against Escherichia coli assessed as zone of inhibition at 200 ug/ml by agar disc diffusion method; format: functional; settings: read-out: IZ
Escherichia coli [24] = assay: Antibacterial activity against Escherichia coli assessed as zone of inhibition at 250 ug/ml by agar disc diffusion method; format: functional; settings: read-out: IZ
Pseudomonas aeruginosa [25] = assay: Antibacterial activity against Pseudomonas aeruginosa assessed as zone of inhibition at 200 ug/ml by agar disc diffusion method; format: functional; settings: read-out: IZ
hERG (KCNH2) = hERG (KCNH2) (Homo sapiens, UniProt Q12809); assay: Inhibition of hERG potassium […] at 100 uM relative to control; format: toxicity
Escherichia coli [26] = assay: Antibacterial activity against Escherichia coli assessed as zone of inhibition at 400 ug/ml by agar disk diffusion method; format: functional; settings: read-out: IZ
Bacillus subtilis [27] = assay: Antibacterial activity against Bacillus subtilis assessed as diameter of zone of inhibition at 600 ug/ml by agar disk diffusion method; format: functional; settings: read-out: IZ
Bacillus subtilis [28] = assay: Antibacterial activity against Bacillus subtilis assessed as diameter of zone of inhibition at 400 ug/ml by agar disk diffusion method; format: functional; settings: read-out: IZ
Escherichia coli [29] = assay: Antibacterial activity against Escherichia coli assessed as zone of inhibition at 600 ug/ml by agar disk diffusion method; format: functional; settings: read-out: IZ
Escherichia coli [30] = assay: Antibacterial activity against Escherichia coli assessed as zone of inhibition at 10 ug/ml by agar well diffusion method; format: functional; settings: read-out: IZ
Staphylococcus aureus [31] = assay: Antibacterial activity against Staphylococcus aureus assessed as zone of inhibition at 10 ug/ml by agar well diffusion method; format: functional; settings: read-out: IZ
Escherichia coli [32] = assay: Antibacterial activity against Escherichia coli assessed as zone of inhibition at 25 ug/ml by agar well diffusion method; format: functional; settings: read-out: IZ
Staphylococcus aureus [33] = assay: Antibacterial activity against Staphylococcus aureus assessed as zone of inhibition at 35 ug/ml by agar well diffusion method; format: functional; settings: read-out: IZ
Escherichia coli [34] = assay: Antibacterial activity against Escherichia coli assessed as zone of inhibition at 35 ug/ml by agar well diffusion method; format: functional; settings: read-out: IZ
Staphylococcus aureus [35] = assay: Antibacterial activity against Staphylococcus aureus assessed as zone of inhibition at 25 ug/ml by agar well diffusion method; format: functional; settings: read-out: IZ

Sequence of Voltage-gated inwardly rectifying potassium channel KCNH2 (Q12809 whole entry): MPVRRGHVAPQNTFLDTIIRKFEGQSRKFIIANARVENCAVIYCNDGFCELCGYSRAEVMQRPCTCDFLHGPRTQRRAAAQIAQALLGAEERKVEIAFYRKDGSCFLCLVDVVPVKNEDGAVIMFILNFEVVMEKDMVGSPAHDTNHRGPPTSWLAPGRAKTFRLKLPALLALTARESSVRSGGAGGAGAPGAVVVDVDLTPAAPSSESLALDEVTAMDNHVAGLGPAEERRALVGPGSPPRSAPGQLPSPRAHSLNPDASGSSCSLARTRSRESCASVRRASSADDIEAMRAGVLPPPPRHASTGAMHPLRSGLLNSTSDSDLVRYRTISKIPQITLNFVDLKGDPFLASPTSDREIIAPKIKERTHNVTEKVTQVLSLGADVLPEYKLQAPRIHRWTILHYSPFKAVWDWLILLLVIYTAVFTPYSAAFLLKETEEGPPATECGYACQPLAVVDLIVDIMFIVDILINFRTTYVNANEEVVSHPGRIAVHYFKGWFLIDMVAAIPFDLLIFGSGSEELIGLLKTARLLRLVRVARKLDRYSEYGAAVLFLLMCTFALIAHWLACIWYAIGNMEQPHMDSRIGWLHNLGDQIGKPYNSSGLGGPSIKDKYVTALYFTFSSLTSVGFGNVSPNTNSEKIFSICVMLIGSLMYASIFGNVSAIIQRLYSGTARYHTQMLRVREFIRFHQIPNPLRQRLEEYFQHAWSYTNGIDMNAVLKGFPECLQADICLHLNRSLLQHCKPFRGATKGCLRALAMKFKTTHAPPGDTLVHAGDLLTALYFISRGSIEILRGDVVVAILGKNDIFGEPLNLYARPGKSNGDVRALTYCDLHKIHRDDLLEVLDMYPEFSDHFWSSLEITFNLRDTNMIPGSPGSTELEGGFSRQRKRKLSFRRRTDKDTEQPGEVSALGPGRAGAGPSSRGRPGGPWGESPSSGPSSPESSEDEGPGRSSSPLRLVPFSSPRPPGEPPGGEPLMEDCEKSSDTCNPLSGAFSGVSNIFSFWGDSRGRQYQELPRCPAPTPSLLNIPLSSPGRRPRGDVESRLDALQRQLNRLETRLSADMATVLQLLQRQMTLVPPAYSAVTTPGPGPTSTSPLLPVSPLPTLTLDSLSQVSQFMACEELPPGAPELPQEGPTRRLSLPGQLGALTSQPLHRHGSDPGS
Sequence of hERG (KCNH2) (Q12809 whole entry, the tested form may be a part): as the sequence (Q12809 whole entry) above

SMILES: O=c1oc2ccccc2cc1-c1cnc2c(-c3cccc([N+](=O)[O-])c3)cc3cccnc3n12
- zone of inhibition at 10 µg/mL (Aspergillus niger [1]): 7 mm
- zone of inhibition at 25 µg/mL (Staphylococcus aureus [2]): 19 mm
- zone of inhibition at 25 µg/mL (Aspergillus niger [3]): 20 mm
- zone of inhibition at 25 µg/mL (Escherichia coli [4]): 2 mm
- zone of inhibition at 35 µg/mL (Aspergillus niger [5]): 28 mm
- zone of inhibition at 35 µg/mL (Staphylococcus aureus [6]): 31 mm
- zone of inhibition at 25 µg/mL (Candida metapsilosis [7]): 17 mm
- zone of inhibition at 10 µg/mL (Candida metapsilosis [8]): 7 mm
- zone of inhibition at 10 µg/mL (Escherichia coli [9]): 8 mm
- zone of inhibition at 10 µg/mL (Staphylococcus aureus [10]): 8 mm
- zone of inhibition at 35 µg/mL (Candida metapsilosis [11]): 28 mm
- zone of inhibition at 35 µg/mL (Escherichia coli [12]): 32 mm

SMILES: N#Cc1c(N)nc2c(c1N)C(c1ccc(C(F)(F)F)cc1)C([N+](=O)[O-])=C1N(Cc3ccc(Cl)nc3)CCN12 (stereo not given)
- LC50 (Aphis craccivora): 31 nM

SMILES: Cc1cc(C)c2ccc3nc(-c4ccc(F)cc4)c(CN4CCOCC4)n3c2n1
- IC50 [13]: > 50000 nM

SMILES: Cc1cc(C)c2ccc3nc(-c4ccccc4)c(CN4CCCCC4)n3c2n1
- IC50 [13]: 1190 nM

SMILES: N#Cc1c(N)nc2c(c1N)C(c1ccc(F)cc1)C([N+](=O)[O-])=C1N(Cc3ccc(Cl)nc3)CCN12 (stereo not given)
- LC50 (Aphis craccivora): 11 nM

SMILES: O=c1oc2ccccc2cc1-c1cnc2c(-c3cccc(O)c3)cc3cccnc3n12
- zone of inhibition at 10 µg/mL (Aspergillus niger [1]): 7 mm
- zone of inhibition at 25 µg/mL (Staphylococcus aureus [2]): 19 mm
- zone of inhibition at 25 µg/mL (Aspergillus niger [3]): 20 mm
- zone of inhibition at 25 µg/mL (Escherichia coli [4]): 2 mm
- zone of inhibition at 35 µg/mL (Aspergillus niger [5]): 28 mm
- zone of inhibition at 35 µg/mL (Staphylococcus aureus [6]): 31 mm
- zone of inhibition at 25 µg/mL (Candida metapsilosis [7]): 17 mm
- zone of inhibition at 10 µg/mL (Candida metapsilosis [8]): 7 mm
- zone of inhibition at 10 µg/mL (Escherichia coli [9]): 8 mm
- zone of inhibition at 10 µg/mL (Staphylococcus aureus [10]): 8 mm
- zone of inhibition at 35 µg/mL (Candida metapsilosis [11]): 28 mm
- zone of inhibition at 35 µg/mL (Escherichia coli [12]): 32 mm

SMILES: Cc1cc(C)c2ccc3nc(-c4ccccc4)c(CN4CCCC4)n3c2n1
- IC50 [13]: 92200 nM

SMILES: O=[N+]([O-])c1cccc(-c2cc3cccnc3n3c(-c4ccc(Cl)cc4)cnc23)c1
- zone of inhibition at 10 µg/mL (Aspergillus niger [1]): 7 mm
- zone of inhibition at 25 µg/mL (Staphylococcus aureus [2]): 19 mm
- zone of inhibition at 25 µg/mL (Aspergillus niger [3]): 20 mm
- zone of inhibition at 25 µg/mL (Escherichia coli [4]): 20 mm
- zone of inhibition at 35 µg/mL (Aspergillus niger [5]): 28 mm
- zone of inhibition at 35 µg/mL (Staphylococcus aureus [6]): 29 mm
- zone of inhibition at 25 µg/mL (Candida metapsilosis [7]): 17 mm
- zone of inhibition at 10 µg/mL (Candida metapsilosis [8]): 7 mm
- zone of inhibition at 10 µg/mL (Escherichia coli [9]): 8 mm
- zone of inhibition at 10 µg/mL (Staphylococcus aureus [10]): 8 mm
- zone of inhibition at 35 µg/mL (Candida metapsilosis [11]): 28 mm
- zone of inhibition at 35 µg/mL (Escherichia coli [12]): 30 mm

- EC50 (Hepatitis C virus): 4100 nM
SMILES: COc1ccc(-c2cc3c(C(F)(F)F)cc(C(F)(F)F)nc3n3c(-c4ccc(OC)cc4)cnc23)cc1

SMILES: Oc1ccc2nc3c(-c4ccccc4C(F)(F)F)cc4cccnc4n3c2c1
- zone of inhibition at 150 µg/mL (Bacillus subtilis [14]): 16 mm
- zone of inhibition at 200 µg/mL (Staphylococcus aureus [15]): 20 mm
- zone of inhibition at 150 µg/mL (Escherichia coli [16]): 17 mm
- zone of inhibition at 150 µg/mL (Pseudomonas aeruginosa [17]): 17 mm
- zone of inhibition at 250 µg/mL (Bacillus subtilis [18]): 23 mm
- zone of inhibition at 200 µg/mL (Bacillus subtilis [19]): 19 mm
- zone of inhibition at 250 µg/mL (Pseudomonas aeruginosa [20]): 22 mm
- zone of inhibition at 250 µg/mL (Staphylococcus aureus [21]): 22 mm
- zone of inhibition at 150 µg/mL (Staphylococcus aureus [22]): 18 mm
- zone of inhibition at 200 µg/mL (Escherichia coli [23]): 22 mm
- zone of inhibition at 250 µg/mL (Escherichia coli [24]): 22 mm
- zone of inhibition at 200 µg/mL (Pseudomonas aeruginosa [25]): 20 mm

SMILES: Cc1cc(C)c2ccc3nc(-c4ccccc4)c(CN4CCOCC4)n3c2n1
- inhibition at 100 µM (hERG (KCNH2)): 10.1%

SMILES: COc1ccc(-c2cc3cccnc3n3c2nc2ccccc23)cc1
- zone of inhibition at 400 µg/mL (Escherichia coli [26]): 11.5 mm
- zone of inhibition at 600 µg/mL (Bacillus subtilis [27]): 8.5 mm
- zone of inhibition at 400 µg/mL (Bacillus subtilis [28]): 7.5 mm
- zone of inhibition at 600 µg/mL (Escherichia coli [29]): 12.5 mm

SMILES: Fc1ccc(-c2cc3cccnc3n3c(-c4ccc(Br)cc4)cnc23)c(Cl)c1
- zone of inhibition at 10 µg/mL (Escherichia coli [30]): 6 mm
- zone of inhibition at 10 µg/mL (Staphylococcus aureus [31]): 6 mm
- zone of inhibition at 25 µg/mL (Escherichia coli [32]): 16 mm
- zone of inhibition at 35 µg/mL (Staphylococcus aureus [33]): 24 mm
- zone of inhibition at 35 µg/mL (Escherichia coli [34]): 25 mm
- zone of inhibition at 25 µg/mL (Staphylococcus aureus [35]): 16 mm
